US7232559B1, “Diagnostic agents for pancreatic exocrine function” (Tokyo Gas Company Limited, priority 1999, dated 2007)
Where “and” joins values, the source holds several entries; their conditions need not be identical. Identical values can stand only once. Primed or numbered codes have the meaning given here. 13C‑Gly = glycine labeled with carbon-13 (13C); Bz′ = not defined here

Key:
[1] = system: chronic pancreatitis rats and control (normal) rats; test: ^13C-breath test (Δ^13C in exhaled CO2 after oral administration); type: in vivo, rat; settings: for Δ^13C (‰) (mean) value at 15 minutes after the administration: 420 mg/kg oral; for Δ^13C (‰) value at 30 minutes after the administration (group mean): 30 mg/kg oral
Experimental: (§1) A model of chronic pancreatitis in rats were prepared by injecting oleic acid into the pancreatic duct (Mundlos et al., Pancreas 1:29 (1986)). After overnight fast, a Wistar male rat of 5 weeks old was anesthetized by intraperitoneal administration of Nembutal (50 mg/kg). The abdominal wall was shaved and the rat was fixed supinely on an operating table. An Isodine solution was applied to sterilize, and a 3 to 4 cm midline incision was made on the abdomen. The duodenum and the pancreas were drawn out and a 25 G needle was pierced through the duodenal wall. A polyethylene cannula (PE-10) was inserted through the pierced hole into the duodenum and further inserted into the common bile duct by about 5 mm from the papilla. The inserted cannula was fixed by a microclip. Further, the biliary duct was closed by a microclip in order to prevent oleic acid from flowing into the liver. Oleic acid (50 μl) was injected at a rate of 20 μl/min by a microsyringe pump. After the injection was completed, the rat was allowed to stand for 2 minutes so that the oleic acid was distributed throughout the pancreas. The microclips and cannula were removed and the duodenum was returned. The endothelium was sutured with silk thread (Nescosuture silk suture thread 3-0, Nihon Shoji KK) and the outer skin was sutured with a skin stapler (Appose ULC, No. 8034-12, 5.7×3.8 mm). As a control, only laparotomy was carried out. These rats subjected to the operation were kept under free intake of standard food and water at 23° C., relative humidity of 55% until use.
The rat of 9 weeks old was fixed without anesthesia in a rat holder for a microwave irradiation apparatus. The breath was collected at a rate of about 100 to 300 ml/min using a stroke pump (Variable Stroke Pump VS-500, Shibata Kagaku Kogyo) and introduced directly to a flow cell of a ^13CO2 analyzer EX-130S (Nihon Bunko). A Perma Pure drier (MD-050-12P, Perma Pure INC.) was set between the rat holder and stroke pump to remove out water vapor in the breath. […]
Output data from the ^13CO2 analyzer were AD converted and put into a personal computer (Apple Power Macintosh 8500). Using a data processing soft ware Lab VIEW (National Instruments), 10 data points at every 100 msec were integrated and averaged in an interval of 5 seconds and converted to ^13C atom %, Δ^13C (‰), and CO2 concentration (%) In this manner, the ^13C breath test was continuously carried out. […] CO2 concentration in the collected breath was held at 3±0.5%.
Δ^13C (‰) was calculated from the ^13C concentration in the exhaled CO2 at each time point (^13C tmin) and the ^13C concentration in standard CO2 (^13C std) according to the following equation: Δ^13C (‰)=[(^13C tmin−^13C 0min)/^13C std]×1000

[2] = system: Wistar male rat pancreas; test: Model of chronic pancreatitis by oleic acid injection into the pancreatic duct: enzyme contents; type: in vivo
Experimental: as §1, with “use. After injecting oleic acid into the pancreatic duct and being kept for 3 weeks, these rats (oleic acid-injected rats) were subjected to measurement of amylase in the blood, and to quantitative determination of chymotrypsinogen and amylase contents in the pancreas (FIG. 1). An extraction buffer (20 mM HEPPS+Na, pH 8.0, 100 mM KCl, 0.5% (w/v) Triton X-100) was added to the removed pancreas to the total volume of 10 ml. The material was subjected to ultrasonic disruption (Bionic 7250, Seiko, Sonics & Materials) and centrifuged at 10,000×g for 20 minutes to yield a pancreatic extract as a supernatant. […] After the reaction, 10 μl of 100% (W/V) TCA solution was added and centrifuged at 15,000×g for 5 minutes and the PABA in the supernatant was quantitatively determined using a PABA measuring kit (Eisai). The amylase activity in the pancreatic extract was measured using Fuji Dri-Chem. Both units of activity (U) show μ mole release/min.” for “use.”

[3] = target: T1, chymotrypsin (from bovine pancreas) (Bos taurus, UniProt P00766); test: Degradation by chymotrypsin (leucine released, ninhydrin reaction); type: biochemical
T1 construct: purchased Worthington Biochemical Corporation #1432, Lot 37A906; host or cells: bovine pancreas (natural source)
Experimental: Bz-DL-Phe-(^13C-Leu) was reacted with chymotrypsin and the degradation product, leucine, generated upon action of chymotrypsin was quantitatively determined by ninhydrin reaction. The reaction was carried out in 20 mM HEPPS-Na (pH 8.0), 23 mM Bz-DL-Phe-(^13C-Leu), 0.16 mg/ml chymotrypsin (from bovine pancreas, Worthington Biochemical Corporation, #1432, Lot 37A906) at 37° C. for 15 minutes. After reaction, 50 μl of citrate buffer (citric acid monohydrate), 20 μl of ninhydrin solution (50 mg/ml solution in methyl cellosolve) and 100 μl of KCN solution (0.01 M aqueous KCN solution diluted 50 times with methyl cellosolve) were added to 100 μl of the reaction mixture and heated at 100° C. for 15 minutes. After cooling the ninhydrin reaction mixture to room temperature, 150 μl of 60% (V/V) ethanol was added to 100 μl of the ninhydrin reaction mixture and stirred followed by determination of an absorbance at a wave length of 570 nm. An experiment wherein all the reactions that were carried out without adding Bz-DL-Phe-(^13C-Leu) was taken as a “blank,” and leucine was used as a standard.

[4] = chronic pancreatitis rats #1-#4, 250 mg/kg oral
[5] = chronic pancreatitis rats (n=4), 250 mg/kg oral
[6] = normal rats #1-#4, 250 mg/kg oral
[7] = normal rats (n=4), 250 mg/kg oral
[8] = oleic acid-injected rats (n=17), 50 μl into pancreatic duct, 3 weeks after

Q: With Bz-Tyr-(^13C-Leu) as the compound, how does the “Δ^13C (‰) at 20 min, individual rat” value [1, 4] read?
A: Its value is 8.76 ‰ and 3.58 ‰ and 2.44 ‰ and −0.15 ‰.

Q: What about the “Δ^13C (‰) value at 20 minutes after the administration (group mean)” value (“Δ^13C (‰) value at 20 minutes” for short) [1, 5] of the same compound?
A: The value was 3.66±3.24 ‰.

Q: And the “Δ^13C (‰) at 20 min, individual rat” value [1, 6]?
A: The value was 65.76 ‰ and 21.02 ‰ and 80.02 ‰ and 111.32 ‰.

Q: What about the “Δ^13C (‰) value at 20 minutes” value [1, 7] of the same compound?
A: The value was 69.53±32.50 ‰.

Q: How did the “rats evaluated to have pancreatitis (chymotrypsinogen content below mean−2SD of control)” value ([2]; 12 rats among 17 oleic acid-injected rats) turn out when `CCCCCCCC/C=C\CCCCCCCC(=O)O` [oleic acid] was run?
A: Its value is 70%.

Q: And the blood amylase concentration ([2]; oleic acid-injected rats (n=17), 3 weeks after)?
A: The blood amylase concentration was 2137 U.

Q: And the “amylase content in the pancreas” value [2, 8]?
A: The value was 789 U.

Q: What about the “chymotrypsinogen content in the pancreas” value [2, 8] of the same compound?
A: The value was 8.1 U.

Q: With “Bz-Ala-Ala-Ala-Ala-(^13C-Gly)-Phe-Leu ({Bz′}-AAAA-{13C‑Gly-Phe-Leu})” as the compound, how does the “Δ^13C (‰) at 15 min, individual rat” value ([1]; chronic pancreatitis rats #1-#2, 420 mg/kg oral) read?
A: Its value is −1.90 ‰ and 3.12 ‰.

Q: And the “Δ^13C (‰) (mean) value at 15 minutes after the administration” value ([1]; chronic pancreatitis rats (n=2))?
A: The value was 0.61 ‰.

Q: What about the “Δ^13C (‰) at 15 min, individual rat” value ([1]; normal rats #1-#2, 420 mg/kg oral) of the same compound?
A: The value was 23.47 ‰ and 43.16 ‰.

Q: And the “Δ^13C (‰) (mean) value at 15 minutes after the administration” value ([1]; normal rats (n=2))?
A: The value was 33.32 ‰.

Q: With Bz-DL-Phe-(^13C-Leu) as the compound, how does the rate of degradation ([3]; 23 mM substrate, 0.16 mg/ml chymotrypsin, 20 mM HEPPS-Na pH 8.0, 37° C., 15 minutes) read?
A: The rate of degradation was 1.72 nmole/mg chymotrypsin/min.

Q: What about the substrate for chymotrypsin ([3]; same reaction, leucine produced) of the same compound?
A: The substrate for chymotrypsin was “could be a substrate for chymotrypsin”.

Q: And the “time course of Δ^13C (‰)” value ([1]; 7 cases of the chronic pancreatitis rats (n=8), 250 mg/kg oral)?
A: Its value is “the degree of increase was small and continued to slowly increase for 30 minutes”.

Q: With Bz-L-Phe-(^13C-Leu) as the compound, how does the “Δ^13C (‰) at 10 min, individual rat” value [1, 4] read?
A: Its value is 1.61 ‰ and 3.28 ‰ and 17.21 ‰ and 5.77 ‰.

Q: And the “Δ^13C (‰) value at 10 minutes after the administration (group mean)” value [1, 5]?
A: Its value is 6.97±6.09 ‰.

Q: What about the “Δ^13C (‰) at 10 min, individual rat” value [1, 6] of the same compound?
A: The value was 60.25 ‰ and 165.37 ‰ and 203.16 ‰ and 31.29 ‰.

Q: What about the “Δ^13C (‰) value at 10 minutes after the administration (group mean)” value [1, 7] of the same compound?
A: The value was 115.02±71.26 ‰.

Q: Which “Δ^13C (‰) at 30 min, individual rat” value ([1]; chronic pancreatitis rats #1-#4, 30 mg/kg oral) does the source give for Arg-(^13C-Leu) here?
A: The value was 3.74 ‰ and 6.97 ‰ and 4.87 ‰ and 1.92 ‰.

Q: And the “Δ^13C (‰) value at 30 minutes after the administration (group mean)” value ([1]; chronic pancreatitis rats (n=4))?
A: The value was 4.37±1.83 ‰.

Q: What about the “Δ^13C (‰) at 30 min, individual rat” value ([1]; normal rats #1-#4, 30 mg/kg oral) of the same compound?
A: Its value is 13.74 ‰ and 15.37 ‰ and 10.08 ‰ and 10.30 ‰.

Q: What about the “Δ^13C (‰) value at 30 minutes after the administration (group mean)” value ([1]; normal rats (n=4)) of the same compound?
A: The value was 12.37±2.26 ‰.

Q: Bz-Arg-(^13C-Leu).HCl was tested. Which “Δ^13C (‰) at 20 min, individual rat” value ([1]; chronic pancreatitis rats #1-#3, 100 mg/kg oral) did it give?
A: The value was 3.69 ‰ and 11.25 ‰ and −5.79 ‰.

Q: And the “Δ^13C (‰) value at 20 minutes” value ([1]; chronic pancreatitis rats (n=3), 100 mg/kg oral)?
A: Its value is 3.05±6.97 ‰.

Q: What about the “Δ^13C (‰) at 20 min, individual rat” value ([1]; normal rats #1-#3, 100 mg/kg oral) of the same compound?
A: The value was 79.91 ‰ and 51.94 ‰ and 74.46 ‰.

Q: What about the “Δ^13C (‰) value at 20 minutes” value ([1]; normal rats (n=3), 100 mg/kg oral) of the same compound?
A: The value was 68.77±12.01 ‰.
